This is an account of results in US7638535B2, “4-(aminomethyl)-piperidine benzamides as 5HT4-antagonists” (Janssen Pharmaceutica N.V., priority 2003, dated 2009).

Series [1] addresses T1, h5-HT4b (Homo sapiens, UniProt Q13639).
T1 construct: expressed in transfected cells; host or cells: HEK 293 (clone 9), membrane preparation
Briefly: 5HT4 antagonism: [3H]GR113808 binding to membranes of h5-HT4b-HEK 293 clone 9 cells. The conditions noted are these: displacement of [3H]GR113808 0.1 nM, h5-HT4b-HEK 293 membranes, 30 min at 25° C.; read-out: pIC50 (5HT4 antagonistic data) (converted). In short, it runs like this: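 Membranes from h5-HT4b-HEK 293 clone 9 cells were incubated with [3H]GR113808 (0.1 nM as added) in 50 mM HEPES-NaOH pH 7.4 for 30 min at 25 °C. Non-specific binding was defined with a 5-HT4 agonist. Bound radioligand was separated by filtration over PEI-soaked GF/B filters.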

Series [2] is described as follows: Metabolic stability: % metabolism after 60 minutes incubation with active liver microsomes. As to conditions: compound 5 μM, microsomes 1 mg/ml, NADPH-generating system, 60 minutes at 37 degrees Celsius. It is filed as in vitro ADME. The procedure:
Sub-cellular tissue preparations were made according to Gorrod et al. (Xenobiotica 5:453-462, 1975) by centrifugal separation after mechanical homogenization of tissue. Liver tissue was rinsed in ice-cold 0.1 M Tris-HCl (pH 7.4) buffer to wash excess blood. Tissue was then blotted dry, weighed and chopped coarsely using surgical scissors. The tissue pieces were homogenized in 3 volumes of ice-cold 0.1 M phosphate buffer (pH 7.4).
Tissue homogenates were centrifuged at 9000×g for 20 minutes at 4° C. The resulting supernatant was stored at −80° C. and is designated ‘S9’.
The S9 fraction can be further centrifuged at 100.000×g for 60 minutes (4° C.). The resulting supernatant was carefully aspirated, aliquoted and designated ‘cytosol’. The pellet was re-suspended in 0.1 M phosphate buffer (pH 7.4) in a final volume of 1 ml per 0.5 g original tissue weight and designated ‘microsomes’.
All sub-cellular fractions were aliquoted, immediately frozen in liquid nitrogen and stored at −80° C. until use.
For the samples to be tested, the incubation mixture contained PBS (0.1M), compound (5 μM), microsomes (1 mg/ml) and a NADPH-generating system (0.8 mM glucose-6-phosphate, 0.8 mM magnesium chloride and 0.8 Units of glucose-6-phosphate dehydrogenase). Control samples contained the same material but the microsomes were replaced by heat inactivated (10 minutes at 95 degrees Celsius) microsomes. Recovery of the compounds in the control samples was always 100%.
The mixtures were preincubated for 5 minutes at 37 degrees Celsius. The reaction was started at time point zero (t=0) by addition of 0.8 mM NADP and the samples were incubated for 60 minutes (t=60). The reaction was terminated by the addition of 2 volumes of DMSO. Then the samples were centrifuged for 10 minutes at 900×g and the supernatants were stored at room temperature for no longer as 24 hours before analysis. All incubations were performed in duplo. Analysis of the supernatants was performed with LC-MS analysis. Elution of the samples was performed on a Xterra MS C18 (50×4.6 mm, 5 μm, Waters, US). An Alliance 2790 (Supplier: Waters, US) HPLC system was used. Elution was with buffer A (25 mM ammoniumacetate (pH 5.2) in H2O/acetonitrile (95/5)), solvent B being acetonitrile and solvent C methanol at a flow rate of 2.4 ml/min. The gradient employed was increasing the organic phase concentration from 0% over 50% B and 50% C in 5 min up to 100% B in 1 minute in a linear fashion and organic phase concentration was kept stationary for an additional 1.5 minutes. Total injection volume of the samples was 25 μl.
A Quatro triple quadrupole mass spectrometer fitted with and ESP source was used as detector. The source and the desolvation temperature were set at 120 and 350° C. respectively and nitrogen was used as nebuliser and drying gas. Data were acquired in positive scan mode (single ion reaction). Cone voltage was set at 10 V and the dwell time was 1 second.
Metabolic stability was expressed as % metabolism of the compound after 60 minutes (equation given as example) of incubation in the presence of active microsomes (E(act))
On the technique in general: Microsomes from liver hold many membrane-bound enzymes, among them those of drug oxidation.

T1 sequence (Q13639 whole entry): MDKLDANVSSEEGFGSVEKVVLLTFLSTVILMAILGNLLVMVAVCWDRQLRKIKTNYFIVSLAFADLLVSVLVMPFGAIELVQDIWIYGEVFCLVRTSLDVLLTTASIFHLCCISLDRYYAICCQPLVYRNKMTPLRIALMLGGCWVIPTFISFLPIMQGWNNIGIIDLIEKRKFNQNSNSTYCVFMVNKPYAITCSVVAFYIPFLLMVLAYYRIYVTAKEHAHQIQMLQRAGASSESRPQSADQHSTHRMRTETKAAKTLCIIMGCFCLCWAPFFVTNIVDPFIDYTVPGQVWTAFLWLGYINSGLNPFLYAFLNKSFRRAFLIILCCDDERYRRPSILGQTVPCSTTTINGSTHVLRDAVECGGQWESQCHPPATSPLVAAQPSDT

In general, melting point refers to the temperature of the solid-liquid transition. As for `CNc1cc2c(c(C(=O)NC[C@@H]3CCN(CCCC(=O)O)C[C@H]3O)c1)OCCO2` [compound 16], the melting point was 240 °C. In addition, the IC50 in series [1] is 617 nM.

For the compound `Cc1nccnc1NCCN1CC[C@@H](CNC(=O)c2cc(N)c(Cl)c3c2OCCO3)[C@H](O)C1` [compound 68], the melting point came out at 100 °C. For the same compound, the IC50 in series [1] was 30.2 nM. For the compound `Cc1cc2c(c(C(=O)NC[C@@H]3CCN(CCCCNS(C)(=O)=O)C[C@H]3O)c1)OCCCO2` [compound 193], the melting point stood at 134 °C. Besides, in series [1], the IC50 is 1.69 nM.

`COCCCN1CC[C@@H](CNC(=O)c2cc(C)cc3c2OCCCO3)[C@H](O)C1` [compound 200] returned a melting point of 108 °C. Also, the “% metabolised compound (compounds of present invention)” value (shortened to “% metabolised compound”) in series [2] worked out at 15%. Besides, in series [1], the IC50 is 0.955 nM. In the case of `CC(=O)CCCN1CC[C@@H](CNC(=O)c2cc(N)c(Cl)c3c2OCCO3)[C@H](O)C1` [compound 44], the melting point turned out to be 130 °C. The IC50 in series [1] was 22.9 nM. For `CNc1cc2c(c(C(=O)NC[C@@H]3CCN(CCCO)C[C@H]3O)c1)OCCCO2` [compound 2], the melting point amounted to 150 °C. Further, the IC50 in series [1] was 525 nM. On to `Cc1cc2c(c(C(=O)NC[C@@H]3CCN(CCCC(N)=O)C[C@H]3O)c1)OCCCO2` [compound 197], for which the melting point came out at 136 °C.

For the compound `CNc1cc2c(c(C(=O)NC[C@@H]3CCN(CCOC)C[C@H]3O)c1)OCCCO2` [compound 33], the melting point turned out to be 135 °C. Also, the IC50 in series [1] was 186 nM.

Turning to `COCCCCN1CC[C@@H](CNC(=O)c2cc(N)cc3c2OCCCO3)[C@H](O)C1` [compound 1], the melting point stood at 174 °C. Besides, in series [1], the IC50 is 49 nM. On to `Cc1cc2c(c(C(=O)NC[C@@H]3CCN(CCCCO)C[C@H]3O)c1)OCCO2` [compound 228], for which the “% metabolised compound” value in series [2] amounted to 6%. Also, the IC50 in series [1] is 0.398 nM.

The compound `CCCCN1CC[C@@H](CNC(=O)c2cc(N)cc3c2OCCO3)[C@H](O)C1` [compound 107] registered a melting point above 160 °C. For the same compound, the IC50 in series [1] was 5.5 nM. For `CCCCN1CC[C@@H](CNC(=O)c2cc(N)c(Cl)c3c2OCCO3)[C@H](O)C1` [compound 11], in that order: above 110 °C and 5.75 nM. Turning to `CC(=O)CCCN1CC[C@@H](CNC(=O)c2cc(C)cc3c2OCCCO3)[C@H](O)C1` [compound 229], the “% metabolised compound” value in series [2] stood at 12%. The IC50 in series [1] was 0.55 nM.

`CS(=O)(=O)NCCN1CC[C@@H](CNC(=O)c2cc(N)c(Cl)c3c2OCCO3)[C@H](O)C1` [compound 63] registered a melting point of 180 °C. Further, the IC50 in series [1] was 69.2 nM. For `CNc1cc(C(=O)NC[C@@H]2CCN(CCCOC)C[C@H]2O)c2c(c1Cl)OCCO2` [compound 26], in that order: 106 to 108 °C and 19.1 nM. `Cc1cc2c(c(C(=O)NC[C@@H]3CCN(CCCC(=O)N4CCN(C)CC4)C[C@H]3O)c1)OCCCO2` [compound 238] yielded a melting point above 112 °C. Also, the IC50 in series [1] was 0.851 nM. In turn, `CNCCCN1CC[C@@H](CNC(=O)c2cc(NC)cc3c2OCCCO3)[C@H](O)C1` (hydrate or solvate) [compound 81] yielded a melting point above 130 °C. With `CCCCN1CC[C@@H](CNC(=O)c2cc(C#N)cc3c2OCCCO3)[C@H](O)C1` [compound 159], in series [2], the “% metabolised compound” value is 22%. The IC50 in series [1] was 5.01 nM. With `COCCCCN1CC[C@@H](CNC(=O)c2cc(CC#N)cc3c2OCCCO3)[C@H](O)C1` [compound 184], the “% metabolised compound” value in series [2] is reported as 12%. Further, the IC50 in series [1] is 20 nM. With `CCNc1cc2c(c(C(=O)NC[C@@H]3CCN(CCCOC)C[C@H]3O)c1)OCCCO2` [compound 177], the “% metabolised compound” value in series [2] is on record as 4%. Moreover, the IC50 in series [1] was 108 nM.

In the case of `Cc1cc2c(c(C(=O)NC[C@@H]3CCN(CCCC4(C)OCCO4)C[C@H]3O)c1)OCCCO2` [compound 227], the “% metabolised compound” value in series [2] is listed as 24%. In series [1], the IC50 was 0.501 nM. Compound `CNc1cc2c(c(C(=O)NC[C@@H]3CCN(CCCOC)C[C@H]3O)c1)OCCCO2` [compound 113] gave a melting point of 126 °C. Moreover, the IC50 in series [1] was 126 nM.

In the case of `Cc1cc2c(c(C(=O)NC[C@@H]3CCN(CCC4OCCO4)C[C@H]3O)c1)OCCCO2` [compound 163], the “% metabolised compound” value in series [2] stood at 11%. For the same compound, the IC50 in series [1] is 2.29 nM.
